Data as given in PMC6825211 (Nature Communications, 2019).
Values joined by “and” are separate entries in the source; they are usually repeats but may differ in a detail not shown here. Identical values can stand only once.

Columns and labels:
[1] = system: human islets; assay: β-cell apoptosis (TUNEL/insulin) under diabetogenic conditions; type: cell-based; conditions: for mean TUNEL/isolation/%: 72 h
Protocol: . pThr183), caspase-3 cleavage, and GAPDH or actin were analyzed by western blotting. […] Scale bar, 100 μm. […]; all by Student’s t tests.
Human islets were isolated from eight pancreases of nondiabetic organ donors at PRODO Labs and at Lille University and cultured on extracellular matrix-coated dishes (Novamed, Jerusalem, Israel)[62] or on Biocoat Collagen I coated dishes (#356400, Corning, ME, USA). […] The clonal rat β-cell line INS-1E was kindly provided by Dr. Claes Wollheim, Geneva & Lund University. Human islets were cultured in complete CMRL-1066 (Invitrogen) medium at 5.5 mM glucose, mouse islets and INS-1E cells at complete RPMI-1640 medium at 11.1 mM glucose. […] . Palmitic acid (Sigma) was dissolved at 10 mmol/l in RPMI-1640 medium containing 11% fatty acid–free bovine serum albumin (BSA) (Sigma) under an N2-atmosphere and added to the culture at 0.5 mM[64]. […] . Isolated human islets or INS-1E cells were infected with adenovirus carrying LacZ as control or MST1 or LATS2 (all Vector Biolabs), at a multiplicity of infection of 100 (human islets) or 20 (INS-1E) for 4 h[11]. Adenovirus was subsequently washed off with PBS and replaced by fresh medium with 10% FBS and the respective analysis performed after 48 h post infection.
(§1) Mouse pancreases were dissected and fixed in 4% formaldehyde at 4 °C for 12 h before embedding in paraffin[62]. Two-four-micrometer sections were deparaffinized, rehydrated, and incubated overnight at 4 °C with anti-PDX-1 (Abcam; #47267), anti-Glut2 (Chemicon; #07-1402), anti-Ki67 (Dako; #M7249), anti-phospho-Histone H3 (Ser10; Merck #06-570), and anti-NKX6.1 (DSHB, University of Iowa #F55A12[66]) in combination with TSA (Invitrogen #T30955), or for 2 h at room temperature with anti-insulin (Dako; A0546) antibodies (all at a dilution of 1:100, except anti-PDX-1, which was diluted 1:400) followed by fluorescein isothiocyanate (FITC)- or Cy3-conjugated secondary antibodies (Jackson ImmunoResearch Laboratories, West Grove, PA). Slides were mounted with Vectashield with 4′6-diamidino-2-phenylindole (DAPI) (Vector Labs). β-cell apoptosis was analyzed by the terminal deoxynucleotidyl transferase-mediated dUTP nick-end labeling (TUNEL) technique according to the manufacturer’s instructions (In Situ Cell Death Detection Kit, TMR red; Roche) and double stained for insulin. Fluorescence was analyzed by using a Nikon MEA53200 (Nikon GmbH, Dusseldorf, Germany) microscope, and images were acquired by using NIS-Elements software (Nikon).

[2] = system: obese diabetic Lepr db/db mice; assay: db/db model: nuclear PDX1-positive β-cells; type: in vivo, mouse; conditions: for PDX1 %/mouse: dbdb mice
Description: Data are representative of six mice per group (n = 6 for (a–f)). g–j Mice were killed at day 31. g β-cell mass (given as percentage of the whole pancreatic section from ten sections spanning the width of the pancreas; n = 5 mice/group) and quantitative analyses from triple stainings for (h) TUNEL, (i) Ki67, (j) pHH3, and (k) nuclear PDX1 expression, insulin, and DAPI expressed as percentage of TUNEL-, Ki67-, pHH3-, or nuclear PDX1-positive β-cells ± SEM. An average number of 13667 (h), 5937 (i), 7108 (j), or 4330 (k) β-cells were counted from n = 3–5 (h, i, k) or n = 5–6 (j) mice/group.
as §1

[3] = target: MAP4K4 (Homo sapiens, UniProt O95819); assay: biochemical; conditions: read-out: % inhibition by neratinib
Sequence of MAP4K4 (O95819 whole entry, species assumed): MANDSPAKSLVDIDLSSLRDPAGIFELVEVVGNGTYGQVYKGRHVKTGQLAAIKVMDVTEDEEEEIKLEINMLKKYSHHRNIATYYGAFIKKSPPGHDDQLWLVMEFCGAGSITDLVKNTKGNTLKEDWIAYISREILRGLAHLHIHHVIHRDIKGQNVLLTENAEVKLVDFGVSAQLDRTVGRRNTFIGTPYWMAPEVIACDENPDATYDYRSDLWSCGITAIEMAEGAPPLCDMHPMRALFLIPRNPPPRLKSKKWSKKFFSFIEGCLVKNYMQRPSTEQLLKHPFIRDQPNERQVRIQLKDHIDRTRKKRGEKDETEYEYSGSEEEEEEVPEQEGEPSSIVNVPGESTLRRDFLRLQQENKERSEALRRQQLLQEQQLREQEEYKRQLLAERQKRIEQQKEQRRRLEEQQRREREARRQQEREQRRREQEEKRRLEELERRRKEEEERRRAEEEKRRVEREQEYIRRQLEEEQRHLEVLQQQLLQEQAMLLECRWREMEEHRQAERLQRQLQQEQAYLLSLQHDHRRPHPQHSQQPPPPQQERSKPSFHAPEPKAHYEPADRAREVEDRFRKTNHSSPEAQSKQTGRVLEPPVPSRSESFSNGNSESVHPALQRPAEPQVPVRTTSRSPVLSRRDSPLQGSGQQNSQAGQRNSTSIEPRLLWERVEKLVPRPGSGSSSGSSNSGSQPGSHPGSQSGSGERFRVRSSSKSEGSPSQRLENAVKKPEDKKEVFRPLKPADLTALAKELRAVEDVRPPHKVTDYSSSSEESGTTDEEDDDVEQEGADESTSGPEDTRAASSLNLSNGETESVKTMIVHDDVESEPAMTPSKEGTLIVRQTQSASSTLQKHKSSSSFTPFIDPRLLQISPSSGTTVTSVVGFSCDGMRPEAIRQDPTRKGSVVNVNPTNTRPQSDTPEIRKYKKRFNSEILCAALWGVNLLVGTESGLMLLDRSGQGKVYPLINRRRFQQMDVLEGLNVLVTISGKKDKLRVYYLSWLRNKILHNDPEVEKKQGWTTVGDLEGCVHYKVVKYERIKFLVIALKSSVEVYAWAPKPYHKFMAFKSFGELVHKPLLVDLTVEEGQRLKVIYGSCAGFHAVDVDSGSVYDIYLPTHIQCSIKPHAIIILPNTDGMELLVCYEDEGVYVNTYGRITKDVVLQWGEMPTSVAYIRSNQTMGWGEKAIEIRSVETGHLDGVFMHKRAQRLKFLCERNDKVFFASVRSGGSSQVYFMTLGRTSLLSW

[4] = target: T1, MST1 (Homo sapiens, UniProt Q13043); assay: LanthaScreen Eu kinase binding assay (HTS and dose response); set-up: purchased ThermoFisher; conditions: three experiments
T1 sequence (Q13043 1-487): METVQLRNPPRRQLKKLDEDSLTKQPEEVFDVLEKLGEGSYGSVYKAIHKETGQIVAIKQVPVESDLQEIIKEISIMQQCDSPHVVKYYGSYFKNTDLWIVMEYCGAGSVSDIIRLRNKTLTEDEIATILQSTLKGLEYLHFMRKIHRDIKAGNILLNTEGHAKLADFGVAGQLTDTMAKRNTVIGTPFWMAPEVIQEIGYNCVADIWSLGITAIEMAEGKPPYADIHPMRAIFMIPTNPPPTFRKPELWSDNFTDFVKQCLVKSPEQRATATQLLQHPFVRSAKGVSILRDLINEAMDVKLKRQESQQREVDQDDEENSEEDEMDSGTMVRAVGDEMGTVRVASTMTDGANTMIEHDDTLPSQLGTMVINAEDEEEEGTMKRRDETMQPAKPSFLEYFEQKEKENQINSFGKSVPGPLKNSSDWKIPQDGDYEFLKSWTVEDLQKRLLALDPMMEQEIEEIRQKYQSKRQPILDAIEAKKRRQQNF
Protocol: A total of 39 hits were selected for 9-point dose response confirmation in triplicate, starting at 1 μM followed by 1:5 serial dilution.
Compounds in 1000× DMSO stock solution were dispensed by using Echo555 liquid dispensing system (Labcyte, CA) to 1536-well microplate (Corning, NY). Kinase buffer A (ThermoFisher, MA) was prepared and added to each well. […] Each reagent was added to the microplate in equal volume.

[5] = target: GSK-3-BETA (Homo sapiens, UniProt P49841); assay: Nanosyn kinase profiling, mobility shift assay; conditions: read-out: % inhibition by neratinib
Sequence of GSK-3-BETA (P49841 whole entry): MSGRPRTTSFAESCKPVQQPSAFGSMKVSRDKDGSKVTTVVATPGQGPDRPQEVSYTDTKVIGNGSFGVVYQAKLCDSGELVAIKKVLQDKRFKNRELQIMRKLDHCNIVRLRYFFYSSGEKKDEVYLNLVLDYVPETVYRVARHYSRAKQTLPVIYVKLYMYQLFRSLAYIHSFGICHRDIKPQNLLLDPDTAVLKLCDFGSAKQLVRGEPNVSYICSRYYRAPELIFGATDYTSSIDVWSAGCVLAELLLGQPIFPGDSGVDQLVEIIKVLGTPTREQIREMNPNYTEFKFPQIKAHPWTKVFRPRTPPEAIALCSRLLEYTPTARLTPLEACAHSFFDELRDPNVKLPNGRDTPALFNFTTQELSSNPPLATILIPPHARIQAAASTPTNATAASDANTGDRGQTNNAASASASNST

[6] = target: IRAK4 (Homo sapiens, UniProt Q9NWZ3); assay: Nanosyn kinase profiling, mobility shift assay; conditions: read-out: % inhibition by neratinib
Sequence of IRAK4 (Q9NWZ3 whole entry): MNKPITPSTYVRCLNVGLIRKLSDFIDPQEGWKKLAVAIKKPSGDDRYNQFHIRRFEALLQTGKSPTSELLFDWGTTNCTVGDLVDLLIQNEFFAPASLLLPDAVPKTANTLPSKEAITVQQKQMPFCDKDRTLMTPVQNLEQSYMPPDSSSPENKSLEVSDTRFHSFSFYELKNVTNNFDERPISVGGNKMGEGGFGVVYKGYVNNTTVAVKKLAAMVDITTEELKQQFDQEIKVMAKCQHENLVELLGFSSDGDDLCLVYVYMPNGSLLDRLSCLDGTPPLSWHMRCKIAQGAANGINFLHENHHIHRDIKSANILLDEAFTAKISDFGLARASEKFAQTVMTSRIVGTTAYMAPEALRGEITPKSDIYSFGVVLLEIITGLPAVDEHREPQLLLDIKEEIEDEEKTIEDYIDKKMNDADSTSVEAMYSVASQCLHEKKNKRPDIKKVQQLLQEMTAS

[7] = target: MAPK1 (Homo sapiens, UniProt P28482); assay: Nanosyn kinase profiling, mobility shift assay; conditions: read-out: % inhibition by neratinib
Sequence of MAPK1 (P28482 whole entry): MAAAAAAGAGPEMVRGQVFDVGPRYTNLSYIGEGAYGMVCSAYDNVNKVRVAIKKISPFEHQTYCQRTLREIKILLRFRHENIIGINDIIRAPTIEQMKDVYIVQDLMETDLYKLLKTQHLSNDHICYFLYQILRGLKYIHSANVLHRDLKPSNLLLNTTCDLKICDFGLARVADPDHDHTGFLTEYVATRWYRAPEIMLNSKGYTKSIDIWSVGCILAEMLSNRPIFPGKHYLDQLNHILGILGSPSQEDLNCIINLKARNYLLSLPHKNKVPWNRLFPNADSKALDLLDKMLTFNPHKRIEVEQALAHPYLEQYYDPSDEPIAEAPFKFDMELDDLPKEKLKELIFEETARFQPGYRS

[8] = target: MAPKAPK-2 (Homo sapiens, UniProt P49137); assay: Nanosyn kinase profiling, mobility shift assay; conditions: read-out: % inhibition by neratinib
Sequence of MAPKAPK-2 (P49137 whole entry): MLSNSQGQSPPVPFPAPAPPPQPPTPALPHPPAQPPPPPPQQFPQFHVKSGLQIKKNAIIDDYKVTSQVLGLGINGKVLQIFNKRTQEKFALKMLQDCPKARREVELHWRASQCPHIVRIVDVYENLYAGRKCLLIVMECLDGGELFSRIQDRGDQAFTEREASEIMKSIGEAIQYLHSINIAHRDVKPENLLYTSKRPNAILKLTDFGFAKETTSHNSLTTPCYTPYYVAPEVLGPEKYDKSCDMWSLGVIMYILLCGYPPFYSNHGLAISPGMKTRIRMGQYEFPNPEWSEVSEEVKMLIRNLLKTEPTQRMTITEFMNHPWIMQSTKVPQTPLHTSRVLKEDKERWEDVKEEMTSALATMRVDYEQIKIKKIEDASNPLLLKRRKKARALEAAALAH

SMILES: CCOc1cc2ncc(C#N)c(Nc3ccc(OCc4ccccn4)c(Cl)c3)c2cc1NC(=O)/C=C/CN(C)C [neratinib]
- toxicity at basal control levels ([1]; 25 µM neratinib, human islets): did not result in any detectable toxicity
- mean TUNEL/isolation/% ([1]; HG/Pal + NERA, mean of isolations, untreated = 100): 180.73%
- mean TUNEL/isolation/% ([1]; HG/Pal + NERA, single islet isolations, untreated mean = 100): 224.286% and 136.508% and 181.395%
- mean TUNEL/isolation/% ([1]; ILIF + NERA, mean of isolations, untreated = 100): 205.757%
- nuclear PDX1 ([2]; db/db, day 31): enhanced
- PDX1 %/mouse ([2]; Mean): 57.3127%
- PDX1 %/mouse ([2]; individual mice): 48.8372% and 71.3415% and 51.7595%
- inhibition at 10 µM [3]: 73%
- MST1 (% activity) ([4]; neratinib 0.02 nM): 87.31% and 98.20% and 108.86%
- MST1 (% activity) ([4]; neratinib 0.06 nM): 99.80% and 103.92%
- activity at 60 pM ([4]; neratinib 0.06 nM): 114%
- MST1 (% activity) ([4]; neratinib 0.17 nM): 91.02% and 100.09%
- activity at 0.00017 µM ([4]; neratinib 0.17 nM): 97.1%
- MST1 (% activity) ([4]; neratinib 0.51 nM): 98.60% and 98.84%
- activity at 0.00051 µM ([4]; neratinib 0.51 nM): 101%
- MST1 (% activity) ([4]; neratinib 1.52 nM): 88.42% and 89.31%
- activity at 0.00152 µM ([4]; neratinib 1.52 nM): 103%
- MST1 (% activity) ([4]; neratinib 4.57 nM): 67.07% and 80.02%
- activity at 0.00457 µM ([4]; neratinib 4.57 nM): 82.2%
- MST1 (% activity) ([4]; neratinib 13.72 nM): 46.34% and 78.85% and 63.80%
- MST1 (% activity) ([4]; neratinib 41.15 nM): 53.70% and 49.03%
- activity at 0.04115 µM ([4]; neratinib 41.15 nM): 48.9%
- MST1 (% activity) ([4]; neratinib 123.46 nM): 24.15% and 30.50%
- activity at 0.12346 µM ([4]; neratinib 123.46 nM): 30.6%
- MST1 (% activity) ([4]; neratinib 370.37 nM): 7.98% and 6.57%
- activity at 0.37037 µM ([4]; neratinib 370.37 nM): 11.7%
- MST1 (% activity) ([4]; neratinib 1111.11 nM): 8.75% and 1.83%
- MST1 (% activity) ([4]; neratinib 3333.33 nM): 4.17% and -2.20% and -1.83%
- inhibition at 10 µM [5]: 23%
- inhibition at 10 µM [6]: 17%
- inhibition at 10 µM [7]: 12%
- inhibition at 10 µM [8]: 7%
